In US12378224B2 (Dong-A Socio Holdings Co., Ltd., priority 2016, dated 2025):

Target: human MER (528-end) (Homo sapiens (Human), UniProt Q12866)
Assay: HTRF Kinase Activity Biochemical Assay (KinEASE-TK)
Conditions: 10 uM ATP
In short: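 Activity read-out is the HTRF ratio (665 nm over 620 nm emission, ×10,000; excitation 340 nm) after 1 h detection with 0.375 nM Eu3+-cryptate anti-TK antibody plus 0.062 uM SA-XL665. Preceding kinase step: human MER (528-end), biotinylated TK substrate, 1 h, room temperature.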

human MER (528-end), sequence (Q12866 528-999 limits assumed): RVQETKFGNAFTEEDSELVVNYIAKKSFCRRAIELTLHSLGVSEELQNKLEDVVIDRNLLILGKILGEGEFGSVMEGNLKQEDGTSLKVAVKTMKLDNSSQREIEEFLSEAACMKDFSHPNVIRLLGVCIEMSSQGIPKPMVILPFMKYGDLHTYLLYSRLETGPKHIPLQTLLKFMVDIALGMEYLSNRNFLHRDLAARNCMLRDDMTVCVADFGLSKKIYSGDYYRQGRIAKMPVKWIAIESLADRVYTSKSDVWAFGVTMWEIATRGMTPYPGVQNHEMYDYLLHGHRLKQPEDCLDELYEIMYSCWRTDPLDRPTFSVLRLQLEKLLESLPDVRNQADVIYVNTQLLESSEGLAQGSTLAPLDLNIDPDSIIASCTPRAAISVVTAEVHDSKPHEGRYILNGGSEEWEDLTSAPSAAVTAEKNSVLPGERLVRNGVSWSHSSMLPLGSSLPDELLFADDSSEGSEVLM

Row | Compound | IC50
1 | Cc1onc(N)c1-c1ccc(C(=O)N2CC[C@@H](NC(=O)c3cc(-c4cnn(C)c4)cnc3N)C2)cc1 [Example 540, (R)-2-amino-N-(1-(4-(3-amino-5-methylisoxazol-4-yl)benzoyl)pyrrolidin-3-yl)-5-(1-methyl-1H-pyrazol-4-yl)nicotinamide] | > 1000 nM
2 | Cn1cc(-c2cnc(N)c(C(=O)N[C@@H]3CCN(C(=O)c4nc5ccccc5[nH]4)C3)c2)cn1 [Example 545, (R)—N-(1-(1H-benzo[d]imidazole-2-carbonyl)pyrrolidin-3-yl)-2-amino-5-(1-methyl-1H-pyrazol-4-yl)nicotinamide] | > 1000 nM
3 | Cn1cc(-c2cnc(N)c(C(=O)N[C@@H]3CCN(C(=O)c4ccc(C#CCCO)cc4)C3)c2)cn1 [Example 553, (R)-2-amino-N-(1-(4-(4-hydroxybut-1-yn-1-yl)benzoyl)pyrrolidin-3-yl)-5-(1-methyl-1H-pyrazol-4-yl)nicotinamide] | > 1000 nM
4 | Cn1cc(-c2cnc(N)c(C(=O)N[C@@H]3CCN(C(=O)c4ccc(C#CCCCO)cc4)C3)c2)cn1 [Example 554, (R)-2-amino-N-(1-(4-(5-hydroxypent-1-yn-1-yl)benzoyl)pyrrolidin-3-yl)-5-(1-methyl-1H -pyrazol-4-yl)nicotinamide] | 100 to 1000 nM
5 | Nc1ncc(-c2ccc(F)nc2)cc1C(=O)N[C@@H]1CCN(C(=O)c2ccc(-c3ccccc3)cc2)C1 [Example 560, (R)—N-(1-([1,1′-biphenyl]-4-carbonyl)pyrrolidin-3-yl)-6-amino-6′-fluoro-[3,3′-bipyridine]-5-carboxamide] | 100 to 1000 nM

Other lines, results leading:

Row | IC50 | Compound
6 | 100 to 1000 nM | CC(=O)c1ccc(-c2ccc(C(=O)N3CC[C@@H](NC(=O)c4cc(-c5cnn(C)c5)cnc4N)C3)cc2)s1 [Example 538, (R)—N-(1-(4-(5-acetylthiophen-2-yl)benzoyl)pyrrolidin-3-yl)-2-amino-5-(1-methyl-1H-pyrazol-4-yl)nicotinamide]
7 | 100 to 1000 nM | Cc1cnc(-c2ccc(C(=O)N3CC[C@@H](NC(=O)c4cc(-c5cnn(C)c5)cnc4N)C3)cc2)s1 [Example 543, (R)-2-amino-5-(1-methyl-1H-pyrazol-4-yl)-N-(1-(4-(5-methylthiazol-2-yl)benzoyl)pyrrolidin-3-yl)nicotinamide]
8 | 100 to 1000 nM | Cc1csc(-c2ccc(C(=O)N3CC[C@@H](NC(=O)c4cc(-c5cnn(C)c5)cnc4N)C3)cc2)n1 [Example 544, (R)-2-amino-5-(1-methyl-1H-pyrazol-4-yl)-N-(1-(4-(4-methylthiazol-2-yl)benzoyl)pyrrolidin-3-yl)nicotinamide]
9 | 100 to 1000 nM | Cn1cc(-c2cnc(N)c(C(=O)N[C@@H]3CCN(C(=O)c4ccc(-c5ccc(CN6CCC(N)CC6)cc5)cc4)C3)c2)cn1 [Example 547, (R)-2-amino-N-(1-(4′-((4-aminopiperidin-1-yl)methyl)-[1,1′-biphenyl]-4-carbonyl)pyrrolidin-3-yl)-5-(1-methyl-1H-pyrazol-4-yl)nicotinamide]
10 | 100 to 1000 nM | CN1CCC(COc2ccc(-c3ccc(C(=O)N4CC[C@@H](NC(=O)c5cc(-c6cnn(C)c6)cnc5N)C4)cc3)cc2)CC1 [Example 552, (R)-2-amino-5-(1-methyl-1H-pyrazol-4-yl)-N-(1-(4′-((1-methylpiperidin-4-yl)methoxy)-[1,1′-biphenyl]-4-carbonyl)pyrrolidin-3-yl)nicotinamide]
11 | 10 to 100 nM | CN1CCN(c2ccc(-c3cnc(N)c(C(=O)N[C@@H]4CCN(C(=O)c5ccc(-c6ccccc6)cc5)C4)c3)cc2)CC1 [Example 556, (R)—N-(1-([1,1′-biphenyl]-4-carbonyl)pyrrolidin-3-yl)-2-amino-5-(4-(4-methylpiperazin-1-yl)phenyl)nicotinamide]
12 | 10 to 100 nM | Nc1ncc(-c2cccnc2)cc1C(=O)N[C@@H]1CCN(C(=O)c2ccc(-c3ccccc3)cc2)C1 [Example 558, (R)—N-(1-([1,1′-biphenyl]-4-carbonyl)pyrrolidin-3-yl)-6-amino-[3,3′-bipyridine]-5-carboxamide]
